Measured values: ChEMBL document CHEMBL3638907, “Substituted pyrazolo[1,5-a]pyrimidine compounds as Trk kinase inhibitors” (2014)

Biological target: Tyrosine-protein kinase JAK2 (Homo sapiens, UniProt O60674)
Assay: Inhibition Assay: Compounds of Formula I were screened for their ability to inhibit Jak2 using the general enzyme inhibition assay method, in which the assay mixture contained 500 μM ATP, 10 μM Omnia Y7 peptide (Catalog # IVGN KNZ3071C, Invitrogen Corporation, Carlsbad, Calif.) and 4 nM Jak2 in a total volume of 20 μL. […] (catalog # IVGN PV4210).

Sequence of Tyrosine-protein kinase JAK2 (O60674 whole entry): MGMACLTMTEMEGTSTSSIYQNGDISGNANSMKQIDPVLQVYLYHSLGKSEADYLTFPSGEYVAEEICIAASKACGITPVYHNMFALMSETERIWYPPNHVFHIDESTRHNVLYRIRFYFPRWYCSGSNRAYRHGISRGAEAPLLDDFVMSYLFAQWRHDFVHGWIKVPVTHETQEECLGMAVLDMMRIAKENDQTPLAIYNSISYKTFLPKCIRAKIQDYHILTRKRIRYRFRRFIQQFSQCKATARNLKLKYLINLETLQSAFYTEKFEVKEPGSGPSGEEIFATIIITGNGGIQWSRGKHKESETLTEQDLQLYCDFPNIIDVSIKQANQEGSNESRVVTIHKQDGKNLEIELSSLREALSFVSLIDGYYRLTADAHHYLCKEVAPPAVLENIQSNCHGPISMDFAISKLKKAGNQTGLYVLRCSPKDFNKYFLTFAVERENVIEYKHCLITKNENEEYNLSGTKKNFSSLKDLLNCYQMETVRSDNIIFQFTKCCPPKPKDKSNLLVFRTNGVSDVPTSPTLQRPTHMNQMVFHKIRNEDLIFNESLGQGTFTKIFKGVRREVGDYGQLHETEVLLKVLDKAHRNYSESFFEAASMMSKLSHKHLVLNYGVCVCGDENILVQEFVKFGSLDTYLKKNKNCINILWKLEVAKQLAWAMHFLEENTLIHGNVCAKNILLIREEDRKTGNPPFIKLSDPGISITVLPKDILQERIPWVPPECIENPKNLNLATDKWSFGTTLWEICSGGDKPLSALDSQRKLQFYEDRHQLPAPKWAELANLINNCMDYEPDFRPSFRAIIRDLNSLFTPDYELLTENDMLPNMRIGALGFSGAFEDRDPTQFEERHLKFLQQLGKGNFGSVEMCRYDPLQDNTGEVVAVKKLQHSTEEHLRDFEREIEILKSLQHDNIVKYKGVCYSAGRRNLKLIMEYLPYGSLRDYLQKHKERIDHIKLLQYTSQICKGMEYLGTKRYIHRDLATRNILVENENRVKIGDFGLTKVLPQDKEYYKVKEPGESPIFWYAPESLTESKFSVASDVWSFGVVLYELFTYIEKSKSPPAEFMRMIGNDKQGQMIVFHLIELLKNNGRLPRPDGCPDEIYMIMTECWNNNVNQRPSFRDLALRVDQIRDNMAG

Row | IC50 [µM] | SMILES
1 | 0.472 | COCCOc1ccc(F)cc1[C@H]1CCCN1c1ccn2ncc(C(=O)NC3CC3)c2n1
2 | > 1 | COc1ncc(F)cc1[C@H]1CCCN1c1ccn2ncc(C(=O)NCCCNC(=O)OC(C)(C)C)c2n1
